ChEMBL document CHEMBL5512654, “Discovery of novel Thymol-TPP antibiotics that eradicate MRSA persisters” (Eur J Med Chem, 2024)
In brackets after ≈: the same amount, converted by molar mass. Activity calls are given as the source filed them. The rule behind the calls is not given here.

Experiments:
[1] = test system: Staphylococcus aureus; experiment: Antibacterial activity against Staphylococcus aureus ATCC 43300 assessed as inhibition of bacterial growth measured after 18 hrs by microplate reader; format: functional; details: read-out: MIC100
[2] = Cytotoxicity against human L02 cells incubated for 72 hrs by MTT dye reduction assay; format: toxicity, cell-based
[3] = test system: Staphylococcus aureus; experiment: Antibacterial activity against methicillin-resistant Staphylococcus aureus USA 3390 assessed as inhibition of bacterial growth measured after 18 hrs by microplate reader; format: functional; details: read-out: MIC100
[4] = test system: Staphylococcus aureus; experiment: Antibacterial activity against methicillin-resistant Staphylococcus aureus USA 300 assessed as inhibition of bacterial growth measured after 18 hrs by microplate reader; format: functional; details: read-out: MIC100
[5] = test system: Pseudomonas aeruginosa; experiment: Antibacterial activity against Pseudomonas aeruginosa 535 assessed as inhibition of bacterial growth measured after 18 hrs by microplate reader; format: functional; details: read-out: MIC100
[6] = test system: Acinetobacter baumannii; experiment: Antibacterial activity against Acinetobacter baumannii ATCC 19606 assessed as inhibition of bacterial growth measured after 18 hrs by microplate reader; format: functional; details: read-out: MIC100
[7] = test system: Escherichia coli; experiment: Antibacterial activity against Escherichia coli ATCC 25922 assessed as inhibition of bacterial growth measured after 18 hrs by microplate reader; format: functional; details: read-out: MIC100
[8] = test system: Escherichia coli; experiment: Antibacterial activity against Escherichia coli 53328 assessed as inhibition of bacterial growth measured after 18 hrs by microplate reader; format: functional; details: read-out: MIC100
[9] = test system: Klebsiella pneumoniae; experiment: Antibacterial activity against Klebsiella pneumonia 3026 assessed as inhibition of bacterial growth measured after 18 hrs by microplate reader; format: functional; details: read-out: MIC100
[10] = test system: Pseudomonas aeruginosa; experiment: Antibacterial activity against Pseudomonas aeruginosa ATCC 27853 assessed as inhibition of bacterial growth measured after 18 hrs by microplate reader; format: functional; details: read-out: MIC100
[11] = test system: Acinetobacter baumannii; experiment: Antibacterial activity against Acinetobacter baumannii ATCC 1318 assessed as inhibition of bacterial growth measured after 18 hrs by microplate reader; format: functional; details: read-out: MIC100
[12] = test system: Klebsiella pneumoniae; experiment: Antibacterial activity against Klebsiella pneumonia ATCC 700603 assessed as inhibition of bacterial growth measured after 18 hrs by microplate reader; format: functional; details: read-out: MIC100
[13] = test system: Staphylococcus aureus; experiment: In vivo antibacterial efficacy in bioluminescent Staphylococcus aureus Xen29 infected in mouse topical infection model assessed as reduction in number of colonies at 8 mg/kg, sc treated 16, 24, 36, 48, […] hrs post-infection measured after 84 hrs relative to control; format: functional

| SMILES | MIC [1] [µg/mL] | IC50 at 72 h [2] [µg/mL] | MIC [3] [µg/mL] | MIC [4] [µg/mL] | other results |
| --- | --- | --- | --- | --- | --- |
| Cc1cc(O)c(C(C)C)cc1-c1ccccc1 | 16 (≈ 70.7 µM) | 13.5 (≈ 59.5 µM) | 16 (≈ 70.7 µM) | 8 (≈ 35.3 µM) | – |
| Cc1cc(OC(=O)CCCCCCC[P+](c2ccccc2)(c2ccccc2)c2ccccc2)c(C(C)C)cc1-c1ccccc1.[Br-] | – | 21.1 | – | – | MIC [5]: 32 µg/mL; MIC [6]: 8 µg/mL; MIC [7]: 4 µg/mL; MIC [8]: 8 µg/mL; MIC [9]: 16 µg/mL; MIC [10]: 32 µg/mL; MIC [11]: 16 µg/mL; MIC [12]: 16 µg/mL |
| Cc1cc(O)c(C(C)C)cc1-c1cccc(Cl)c1 | 4 (≈ 15.3 µM) | – | 8 (≈ 30.7 µM) | 8 (≈ 30.7 µM) | – |
| Cc1cc(O)c(C(C)C)cc1-c1ccccc1C(F)(F)F | 8 (≈ 27.2 µM) | – | 16 (≈ 54.4 µM) | 8 (≈ 27.2 µM) | – |
| CN[C@H](CC(C)C)C(=O)N[C@H]1C(=O)N[C@@H](CC(N)=O)C(=O)N[C@H]2C(=O)N[C@H]3C(=O)N[C@H](C(=O)N[C@H](C(=O)O)c4cc(O)cc(O)c4-c4cc3ccc4O)[C@H](O)c3ccc(c(Cl)c3)Oc3cc2cc(c3O[C@@H]2O[C@H](CO)[C@@H](O)[C@H](O)[C@H]2O[C@H]2C[C@](C)(N)[C@H](O)[C@H](C)O2)Oc2ccc(cc2Cl)[C@H]1O | – | – | – | – | AC200 [13]: Active |
| Cc1cc(OC(=O)CCCCCCCCCC[P+](c2ccccc2)(c2ccccc2)c2ccccc2)c(C(C)C)cc1-c1ccccc1.[Br-] | – | 3.13 | – | – | MIC [5]: > 64 µg/mL; MIC [6]: > 64 µg/mL; MIC [7]: > 64 µg/mL; MIC [8]: 32 µg/mL; MIC [9]: > 64 µg/mL; MIC [10]: 64 µg/mL; MIC [11]: > 64 µg/mL; MIC [12]: > 64 µg/mL |
| Cc1cc(OC(=O)CCC[P+](c2ccccc2)(c2ccccc2)c2ccccc2)c(C(C)C)cc1-c1ccccc1.[Br-] | – | 5.04 | – | – | MIC [5]: > 64 µg/mL; MIC [6]: 8 µg/mL; MIC [7]: 16 µg/mL; MIC [8]: 16 µg/mL; MIC [9]: 32 µg/mL; MIC [10]: 64 µg/mL; MIC [11]: 8 µg/mL; MIC [12]: 16 µg/mL |
| Cc1cc(OC(=O)CC[P+](c2ccccc2)(c2ccccc2)c2ccccc2)c(C(C)C)cc1-c1ccccc1.[Br-] | – | 7.96 | – | – | MIC [5]: > 64 µg/mL; MIC [6]: 32 µg/mL; MIC [7]: 4 µg/mL; MIC [8]: > 64 µg/mL; MIC [9]: > 64 µg/mL; MIC [10]: > 64 µg/mL; MIC [11]: 16 µg/mL; MIC [12]: 32 µg/mL |
| Cc1cc(O)c(C(C)C)cc1-c1ccc(C(=O)O)cc1 | 16 (≈ 59.2 µM) | – | 8 (≈ 29.6 µM) | 16 (≈ 59.2 µM) | – |
| Cc1cc(O)c(C(C)C)cc1Cl [CHLOROTHYMOL] | 64 (≈ 347 µM) | – | 64 (≈ 347 µM) | 64 (≈ 347 µM) | – |
| Cc1cc(OC(=O)CCCC[P+](c2ccccc2)(c2ccccc2)c2ccccc2)c(C(C)C)cc1-c1ccccc1.[Br-] | – | 8.31 | – | – | MIC [5]: > 64 µg/mL; MIC [6]: 16 µg/mL; MIC [7]: 16 µg/mL; MIC [8]: 8 µg/mL; MIC [9]: 32 µg/mL; MIC [10]: > 64 µg/mL; MIC [11]: 8 µg/mL; MIC [12]: 32 µg/mL |
| Cc1cc(O)c(C(C)C)cc1-c1ccc(F)cc1 | 16 (≈ 65.5 µM) | – | 16 (≈ 65.5 µM) | 16 (≈ 65.5 µM) | – |
| COc1ccccc1-c1cc(C(C)C)c(O)cc1C | > 64 | – | > 64 | > 64 | – |
| Cc1cc(O)c(C(C)C)cc1Br | 64 (≈ 279 µM) | – | 32 (≈ 140 µM) | 64 (≈ 279 µM) | – |
| Cc1cc(O)c(C(C)C)cc1-c1cccc(C(F)(F)F)c1 | 8 (≈ 27.2 µM) | – | 8 (≈ 27.2 µM) | 4 (≈ 13.6 µM) | – |
| Cc1cc(O)c(C(C)C)cc1-c1ccccc1C(=O)O | 16 (≈ 59.2 µM) | – | 8 (≈ 29.6 µM) | 8 (≈ 29.6 µM) | – |
| COc1cccc(-c2cc(C(C)C)c(O)cc2C)c1 | 16 (≈ 62.4 µM) | – | 16 (≈ 62.4 µM) | 16 (≈ 62.4 µM) | – |
| Cc1cccc(-c2cc(C(C)C)c(O)cc2C)c1 | 16 (≈ 66.6 µM) | – | 8 (≈ 33.3 µM) | 8 (≈ 33.3 µM) | – |
| Cc1ccc(-c2cc(C(C)C)c(O)cc2C)cc1 | 8 (≈ 33.3 µM) | – | 8 (≈ 33.3 µM) | 16 (≈ 66.6 µM) | – |
